Measurements taken from patent US7282213B2, “Method for applying a drug coating to a medical device” (Medtronic, Inc., priority 2002, dated 2007).

Experiment: HPLC check for drug degradation after thermal processing of the electrode coating
Type: physicochemical
Details: coating heated to solid-state phase change (hot air tool), dissolved from electrode in solvent, compared to control solution
Text: Prior attempts at heating a drug to form a more durable drug coating on an electrode surface have been less successful because the drug may degrade during the heating process due to overheating. One advantage of the present invention is that the controlled heating process, using a focused, direct heat source, achieves a change in solid state and micro-crack healing forming a conformable crystalline coating with a decrease in the defect density, without degrading the drug. […] Electrodes coated with beclomethasone dipropionate, according to the thermal processing methods described above and shown in FIG. 3, have been soaked in a solvent to dissolve the drug coating from the electrode surface. The resulting test solution was analyzed using HPLC and compared to HPLC results from a control sample of beclomethasone dipropionate in solution. Chromatograms of the test solution samples were identical to those of the control samples with regards to retention time of the major peak.

Compound: CCC(=O)OCC(=O)[C@@]1(OC(=O)CC)[C@@H](C)C[C@H]2[C@@H]3CCC4=CC(=O)C=C[C@]4(C)[C@@]3(Cl)[C@@H](O)C[C@@]21C [beclomethasone dipropionate anhydrous]
- degradation products by HPLC after thermal processing: no peaks associated with degradation products were observed
